# Tests used:
# [1] = tested on: HIV-1 (IIIB); experiment: Antiviral assay in MT-4 cells; type: cell-based; conditions: Human immunodeficiency virus 1, MT4, 120 h; HIV-1 IIIB in MT-4 cells, 5 days incubation, Cell Titer Glo; read-out: MT4 EC50
# Outline: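 Read-out: CellTiter-Glo luminescence after 5 days at 37 °C, reflecting survival of MT-4 cells infected with HIV-1 IIIB (1:250 fresh stock dilution) versus mock-infected. Compounds serially diluted into RPMI with 10% FBS; AZT at 5 μM served as positive control.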
# [2] = Cytotoxicity assay in MT-4 cells; type: cell-based; conditions: human; uninfected MT-4 cells, 5 days incubation, Cell Titer Glo; read-out: MT4 CC50
# Outline: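 Viability read by Cell Titer Glo luminescence after 5 days at 37 °C. MT-4 cells, not infected, in complete RPMI (10% FBS), received compound dilution series. Base cytotoxicity set with […] puromycin.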
SMILES,EC50 [1],CC50 at 5 days [2]
"COC(=O)Oc1c2n(cc(C(=O)NCc3ccc(F)cc3F)c1=O)[C@@H]1CN(C2=O)[C@@H](C)CC[C@]12CC(C)=NO2 [Example 121, (3′S,5S,7′R)-10′-((2,4-difluorobenzyl)carbamoyl)-3,3′-dimethyl-1′,11′-dioxo-1′,4′,5′,11′-tetrahydro-3′H,4H,7′H-spiro[isoxazole-5,6′-[2,7]methanopyrido[1,2-a][1,4]diazonin]-12′-yl methyl carbonate]",0.00117 µM,18.9 µM
"CCOC(=O)Oc1c2n(cc(C(=O)NCc3ccc(F)cc3F)c1=O)[C@@H]1CN(C2=O)[C@@H](C)CC[C@]12CC(C)=NO2 [Example 123, (3′S,5S,7′R)-10′-((2,4-difluorobenzyl)carbamoyl)-3,3′-dimethyl-1′,11′-dioxo-1′,4′,5′,11′-tetrahydro-3′H,4H,7′H-spiro[isoxazole-5,6′-[2,7]methanopyrido[1,2-a][1,4]diazonin]-12′-yl ethyl carbonate]",0.00173 µM,14.1 µM
"CCOC(=O)Oc1c2n(cc(C(=O)NCc3ccc(F)cc3F)c1=O)[C@@H]1CN(C2=O)[C@@H](C)CC[C@]12CC(OC)=NO2 [Example 124, (3′S,5S,7′R)-10′-((2,4-difluorobenzyl)carbamoyl)-3-methoxy-3′-methyl-1′,11′-dioxo-1′,4′,5′,11′-tetrahydro-3′H,4H,7′H-spiro[isoxazole-5,6′-[2,7]methanopyrido[1,2-a][1,4]diazonin]-12′-yl ethyl carbonate]",0.000898 µM,17.1 µM
"CCCCOC(=O)Oc1c2n(cc(C(=O)NCc3ccc(F)cc3F)c1=O)[C@@H]1CN(C2=O)[C@@H](C)CC[C@]12CC(C)=NO2 [Example 127, butyl butyl ((3′S,5S,7′R)-10′-((2,4-difluorobenzyl)carbamoyl)-3,3′-dimethyl-1′,11′-dioxo-1′,4′,5′,11′-tetrahydro-3′H,4H,7′H-spiro[isoxazole-5,6′-[2,7]methanopyrido[1,2-a][1,4]diazonin]-12′-yl) carbonate]",0.000201 µM,13.3 µM
"CCCCOC(=O)Oc1c2n(cc(C(=O)NCc3ccc(F)cc3F)c1=O)[C@@H]1CN(C2=O)[C@@H](C)CC[C@]12CC(OC)=NO2 [Example 128, butyl ((3′S,5S,7′R)-10′-((2,4-difluorobenzyl)carbamoyl)-3-methoxy-3′-methyl-1′,11′-dioxo-1′,4′,5′,11′-tetrahydro-3′H,4H,7′H-spiro[isoxazole-5,6′-[2,7]methanopyrido[1,2-a][1,4]diazonin]-12′-yl) carbonate]",0.00021 µM,19.3 µM

# Continued, in another order:
EC50 [1],SMILES,CC50 at 5 days [2]
0.00178 µM,"CCCCCOC(=O)Oc1c2n(cc(C(=O)NCc3ccc(F)cc3F)c1=O)[C@@H]1CN(C2=O)[C@@H](C)CC[C@]12CC(C)=NO2 [Example 129, (3′S,5S,7′R)-10′-((2,4-difluorobenzyl)carbamoyl)-3,3′-dimethyl-1′,11′-dioxo-1′,4′,5′,11′-tetrahydro-3′H,4H,7′H-spiro[isoxazole-5,6′-[2,7]methanopyrido[1,2-a][1,4]diazonin]-12′-yl pentyl carbonate]",21.7 µM
0.00183 µM,"CCCCCOC(=O)Oc1c2n(cc(C(=O)NCc3ccc(F)cc3F)c1=O)[C@@H]1CN(C2=O)[C@@H](C)CC[C@]12CC(OC)=NO2 [Example 130, (3′S,5S,7′R)-10′-((2,4-difluorobenzyl)carbamoyl)-3-methoxy-3′-methyl-1′,11′-dioxo-1′,4′,5′,11′-tetrahydro-3′H,4H,7′H-spiro[isoxazole-5,6′-[2,7]methanopyrido[1,2-a][1,4]diazonin]-12′-yl pentyl carbonate]",31.7 µM
0.000136 µM,"CCCCCCOC(=O)Oc1c2n(cc(C(=O)NCc3ccc(F)cc3F)c1=O)[C@@H]1CN(C2=O)[C@@H](C)CC[C@]12CC(C)=NO2 [Example 131, (3′S,5S,7′R)-10′-((2,4-difluorobenzyl)carbamoyl)-3,3′-dimethyl-1′,11′-dioxo-1′,4′,5′,11′-tetrahydro-3′H,4H,7′H-spiro[isoxazole-5,6′-[2,7]methanopyrido[1,2-a][1,4]diazonin]-12′-yl hexyl carbonate]",19.8 µM

# — patent US20250122219A1 (priority 2023, published 2025)
